Laboratory results taken from ChEMBL document CHEMBL5344407, “Histone deacetylases (HDACs) as the promising immunotherapeutic targets for hematologic cancer treatment” (Eur J Med Chem, 2023).

What was measured:
Histone deacetylase 1 [1] = molecular target: T1, Histone deacetylase 1 (Homo sapiens, UniProt Q13547); experiment: Inhibition of N-terminal GST-tagged full length human HDAC1 expressed in baculovirus system using FTS as substrate preincubated for 10 mins followed by substrate addition and measured after 2 hrs by fluorescence based analysis
T1 sequence (Q13547 whole entry): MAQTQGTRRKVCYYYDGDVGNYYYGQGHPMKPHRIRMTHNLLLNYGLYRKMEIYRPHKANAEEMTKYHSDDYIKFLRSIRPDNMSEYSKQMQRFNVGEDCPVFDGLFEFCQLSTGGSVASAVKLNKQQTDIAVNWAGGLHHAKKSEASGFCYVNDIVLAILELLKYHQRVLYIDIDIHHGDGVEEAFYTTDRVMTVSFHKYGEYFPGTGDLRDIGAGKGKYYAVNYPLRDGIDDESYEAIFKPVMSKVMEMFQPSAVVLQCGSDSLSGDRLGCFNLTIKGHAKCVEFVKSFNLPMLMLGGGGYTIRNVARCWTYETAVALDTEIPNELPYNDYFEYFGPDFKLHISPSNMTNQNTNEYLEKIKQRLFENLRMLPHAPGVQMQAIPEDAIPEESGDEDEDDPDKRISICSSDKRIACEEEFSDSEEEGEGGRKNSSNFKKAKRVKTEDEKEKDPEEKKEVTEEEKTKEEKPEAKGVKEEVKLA

[2] = molecular target: T2, Protein deacetylase HDAC6 (Homo sapiens, UniProt Q9UBN7); experiment: Inhibition of N-terminal GST-tagged full length human HDAC6 expressed in baculovirus system using FTS as substrate preincubated for 10 mins followed by substrate addition and measured after 2 hrs by fluorescence based analysis
T2 sequence (Q9UBN7 whole entry): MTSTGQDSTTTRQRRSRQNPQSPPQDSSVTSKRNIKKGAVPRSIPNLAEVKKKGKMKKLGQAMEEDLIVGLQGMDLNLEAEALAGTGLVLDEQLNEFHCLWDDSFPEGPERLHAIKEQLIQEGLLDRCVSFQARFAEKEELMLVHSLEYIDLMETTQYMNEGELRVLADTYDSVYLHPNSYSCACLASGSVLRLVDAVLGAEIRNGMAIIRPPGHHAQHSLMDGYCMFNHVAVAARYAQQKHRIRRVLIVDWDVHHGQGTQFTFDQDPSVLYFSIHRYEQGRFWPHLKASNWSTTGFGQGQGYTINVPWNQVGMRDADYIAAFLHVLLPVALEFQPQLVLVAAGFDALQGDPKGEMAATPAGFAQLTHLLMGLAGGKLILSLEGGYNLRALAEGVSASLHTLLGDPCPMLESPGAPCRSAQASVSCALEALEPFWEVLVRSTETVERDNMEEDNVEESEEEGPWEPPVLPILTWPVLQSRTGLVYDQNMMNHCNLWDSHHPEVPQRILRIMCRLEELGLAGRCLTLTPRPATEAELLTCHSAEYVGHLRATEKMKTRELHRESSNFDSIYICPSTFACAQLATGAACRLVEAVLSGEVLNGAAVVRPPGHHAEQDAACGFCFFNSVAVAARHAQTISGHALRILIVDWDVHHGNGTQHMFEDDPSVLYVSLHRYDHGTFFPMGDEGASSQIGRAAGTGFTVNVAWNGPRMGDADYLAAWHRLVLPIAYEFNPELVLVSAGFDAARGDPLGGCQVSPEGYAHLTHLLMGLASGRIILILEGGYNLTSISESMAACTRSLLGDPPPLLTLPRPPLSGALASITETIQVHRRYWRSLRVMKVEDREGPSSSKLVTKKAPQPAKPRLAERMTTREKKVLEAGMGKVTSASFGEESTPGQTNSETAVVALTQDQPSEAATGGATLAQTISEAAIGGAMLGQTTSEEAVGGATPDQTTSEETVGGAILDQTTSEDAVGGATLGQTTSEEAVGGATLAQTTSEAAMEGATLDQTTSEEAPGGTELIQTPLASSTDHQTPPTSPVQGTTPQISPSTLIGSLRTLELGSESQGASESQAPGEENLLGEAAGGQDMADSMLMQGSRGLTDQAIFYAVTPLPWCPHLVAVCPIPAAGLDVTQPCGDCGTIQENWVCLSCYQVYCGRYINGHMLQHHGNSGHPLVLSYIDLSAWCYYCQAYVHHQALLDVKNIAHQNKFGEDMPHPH

Histone deacetylase 3 [3] = molecular target: T3, Histone deacetylase 3 (Homo sapiens, UniProt O15379); experiment: Inhibition of N-terminal GST-tagged full length human HDAC3 expressed in baculovirus system using FTS as substrate preincubated for 10 mins followed by substrate addition and measured after 2 hrs by fluorescence based analysis
T3 sequence (O15379 whole entry): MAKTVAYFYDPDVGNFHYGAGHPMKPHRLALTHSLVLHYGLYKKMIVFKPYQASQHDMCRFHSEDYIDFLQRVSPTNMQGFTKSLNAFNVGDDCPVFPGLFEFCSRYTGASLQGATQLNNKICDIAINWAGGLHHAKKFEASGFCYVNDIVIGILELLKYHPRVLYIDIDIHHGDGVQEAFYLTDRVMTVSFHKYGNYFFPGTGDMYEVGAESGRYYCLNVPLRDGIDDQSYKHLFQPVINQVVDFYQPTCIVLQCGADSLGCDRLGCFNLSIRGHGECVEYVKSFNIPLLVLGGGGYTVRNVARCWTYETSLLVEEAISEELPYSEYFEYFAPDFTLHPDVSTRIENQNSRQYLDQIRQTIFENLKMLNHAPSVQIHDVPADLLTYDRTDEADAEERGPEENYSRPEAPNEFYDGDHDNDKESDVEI

Histone deacetylase 2 [4] = molecular target: T4, Histone deacetylase 2 (Homo sapiens, UniProt Q92769); experiment: Inhibition of N-terminal GST-tagged full length human HDAC2 expressed in baculovirus system using FTS as substrate preincubated for 10 mins followed by substrate addition and measured after 2 hrs by fluorescence based analysis
T4 sequence (Q92769 whole entry): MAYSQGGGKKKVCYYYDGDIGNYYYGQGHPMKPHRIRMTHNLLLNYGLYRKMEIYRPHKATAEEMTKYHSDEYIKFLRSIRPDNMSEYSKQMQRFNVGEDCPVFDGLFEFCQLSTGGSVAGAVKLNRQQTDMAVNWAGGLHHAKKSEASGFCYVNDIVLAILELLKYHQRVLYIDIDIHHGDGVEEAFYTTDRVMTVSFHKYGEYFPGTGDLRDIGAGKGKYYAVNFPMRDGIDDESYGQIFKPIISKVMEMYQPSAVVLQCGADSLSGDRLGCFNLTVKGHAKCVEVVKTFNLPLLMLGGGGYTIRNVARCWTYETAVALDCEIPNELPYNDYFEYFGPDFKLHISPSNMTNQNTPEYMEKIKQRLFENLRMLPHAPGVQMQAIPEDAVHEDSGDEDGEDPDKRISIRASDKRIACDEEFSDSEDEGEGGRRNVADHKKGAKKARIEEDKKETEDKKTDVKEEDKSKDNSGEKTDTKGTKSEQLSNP

Histone deacetylase 8 = molecular target: T5, Histone deacetylase 8 (Homo sapiens, UniProt Q9BY41); experiment: Inhibition of N-terminal GST-tagged full length human HDAC8 expressed in baculovirus system using FTS as substrate preincubated for 10 mins followed by substrate addition and measured after 2 hrs by fluorescence based analysis
T5 sequence (Q9BY41 whole entry): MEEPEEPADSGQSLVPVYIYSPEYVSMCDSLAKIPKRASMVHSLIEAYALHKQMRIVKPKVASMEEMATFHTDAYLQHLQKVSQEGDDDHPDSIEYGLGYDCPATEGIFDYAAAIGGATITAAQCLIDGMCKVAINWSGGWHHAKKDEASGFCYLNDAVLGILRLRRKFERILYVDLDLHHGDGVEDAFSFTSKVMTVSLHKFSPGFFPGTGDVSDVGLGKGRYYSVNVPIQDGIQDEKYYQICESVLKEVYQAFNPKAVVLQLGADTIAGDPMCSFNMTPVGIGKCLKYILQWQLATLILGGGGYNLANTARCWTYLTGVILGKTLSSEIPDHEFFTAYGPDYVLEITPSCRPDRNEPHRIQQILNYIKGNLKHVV

Histone deacetylase 11 = molecular target: T6, Histone deacetylase 11 (Homo sapiens, UniProt Q96DB2); experiment: Inhibition of HDAC11 (unknown origin)
T6 sequence (Q96DB2 whole entry): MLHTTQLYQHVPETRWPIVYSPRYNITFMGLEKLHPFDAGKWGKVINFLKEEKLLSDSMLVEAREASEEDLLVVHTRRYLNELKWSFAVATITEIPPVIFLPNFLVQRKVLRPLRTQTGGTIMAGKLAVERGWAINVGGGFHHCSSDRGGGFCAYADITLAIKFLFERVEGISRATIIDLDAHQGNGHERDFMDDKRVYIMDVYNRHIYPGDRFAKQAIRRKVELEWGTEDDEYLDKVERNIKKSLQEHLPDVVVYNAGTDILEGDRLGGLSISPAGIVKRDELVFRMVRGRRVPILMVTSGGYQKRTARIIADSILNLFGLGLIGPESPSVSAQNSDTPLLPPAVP

[5] = molecular target: T7, Polyamine deacetylase HDAC10 (Homo sapiens, UniProt Q969S8); experiment: Inhibition of HDAC10 (unknown origin)
T7 sequence (Q969S8 whole entry): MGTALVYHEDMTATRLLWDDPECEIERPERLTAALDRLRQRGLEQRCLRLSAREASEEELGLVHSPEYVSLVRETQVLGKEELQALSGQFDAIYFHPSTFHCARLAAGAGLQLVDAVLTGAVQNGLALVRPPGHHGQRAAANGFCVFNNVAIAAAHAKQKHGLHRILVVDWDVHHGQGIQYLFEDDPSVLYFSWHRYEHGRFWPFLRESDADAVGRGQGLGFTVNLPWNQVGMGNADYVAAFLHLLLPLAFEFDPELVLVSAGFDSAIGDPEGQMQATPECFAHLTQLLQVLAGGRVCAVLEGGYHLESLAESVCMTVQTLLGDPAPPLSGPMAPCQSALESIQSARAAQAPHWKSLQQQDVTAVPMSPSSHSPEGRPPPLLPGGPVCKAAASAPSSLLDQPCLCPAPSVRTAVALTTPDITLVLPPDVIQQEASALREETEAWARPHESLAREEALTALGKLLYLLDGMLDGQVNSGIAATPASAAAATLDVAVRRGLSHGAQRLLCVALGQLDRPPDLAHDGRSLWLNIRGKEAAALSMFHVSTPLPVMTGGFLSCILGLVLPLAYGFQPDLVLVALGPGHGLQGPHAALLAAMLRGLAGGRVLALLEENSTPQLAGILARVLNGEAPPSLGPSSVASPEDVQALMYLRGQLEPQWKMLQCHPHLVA

Histone deacetylase 1 [6] = molecular target: T1, Histone deacetylase 1; experiment: Inhibition of human recombinant HDAC1 using ZMAL (Z-(Ac)Lys-AMC) as fluorogenic substrate preincubated for 5 mins followed by substrate addition and measured after 1 hr by fluorescence based analysis
Histone deacetylase 2 [7] = molecular target: T4, Histone deacetylase 2; experiment: Inhibition of human full length recombinant HDAC2 expressed in baculovirus infected Sf9 cells using RHKKAc as substrate preincubated for 10 mins followed by substrate addition and measured after 2 hrs by fluorescence based analysis
Histone deacetylase 3 [8] = molecular target: T3, Histone deacetylase 3; experiment: Inhibition of recombinant full length human HDAC3 expressed in insect Sf9 cells

For `O=C(CCCCCCC(=O)N/N=C/c1ccc(N(c2ccccc2)c2ccccc2)cc1)NO`, the IC50 (Histone deacetylase 1 [1]) was 8.35 nM, the IC50 [2] was 0.4 nM and the IC50 (Histone deacetylase 3 [3]) was 51.6 nM. It also gave an IC50 (Histone deacetylase 2 [4]) of 15.4 nM and an IC50 (Histone deacetylase 8) of 1430 nM.
Molecule `Nc1cc(F)ccc1NC(=O)c1ccc(CNC(=O)/C=C/c2cccnc2)cc1` [TUCIDINOSTAT] has an IC50 (Histone deacetylase 11) of 432 nM and an IC50 [5] of 78 nM.
In the case of `CC(C)[C@H](N)C(=O)SCC/C=C/[C@@H]1CC(=O)NCc2nc(cs2)C(=O)NC(C)(C)C(=O)N[C@@H](C(C)C)C(=O)O1` [BOCODEPSIN BESYLATE], the IC50 (Histone deacetylase 1 [6]) is reported as 1.2 nM, the IC50 (Histone deacetylase 2 [7]) is reported as 2.4 nM and the IC50 (Histone deacetylase 3 [8]) is reported as 2 nM.
